From the supplement of paper PMC10307832

Experiments:
Test in all cases: relative viability (nuclei count vs DMSO), 5 days (fraction); higher = more cells survive
QS11 + OSI-027 = compound: C1CC2=C(C1)C=C(C=C2)OC3=NC(=C4C(=N3)N(C=N4)CC5=CC=C(C=C5)C6=CC=CC=C6)N[C@@H](CC7=CC=CC=C7)CO [QS11] + COc1cccc2cc(-c3nc([C@H]4CC[C@H](C(=O)O)CC4)n4ncnc(N)c34)[nH]c12 [OSI-027] (partner 0.5 µM)
Method in brief: (§1)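 Dosing by pin tool came one day after lung cancer cell lines were seeded in 1536-well plates, using either one drug or a fixed anchor-drug dose plus five library-drug doses (not always all listed) in √10 steps. After 5 days, nuclei were counted on 4× images. Relative viability is treated-well nuclei count divided by vehicle-well nuclei count, and values are medians of duplicate plates.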

AZ628 + AZD7762 = compound: CC1=C(C=C(C=C1)NC(=O)C2=CC(=CC=C2)C(C)(C)C#N)NC3=CC4=C(C=C3)N=CN(C4=O)C [AZ628] + NC(=O)Nc1cc(-c2cccc(F)c2)sc1C(=O)N[C@H]1CCCNC1 [AZD7762] (partner 0.2 µM)
Method in brief: as §1

Darinaparsin + OSI-027 = compound: C[As](C)SC[C@H](NC(=O)CC[C@H](N)C(=O)O)C(=O)NCC(=O)O [Darinaparsin] + COc1cccc2cc(-c3nc([C@H]4CC[C@H](C(=O)O)CC4)n4ncnc(N)c34)[nH]c12 [OSI-027] (partner 0.5 µM)
Method in brief: as §1

[1] = compound: C[As](C)SC[C@H](NC(=O)CC[C@H](N)C(=O)O)C(=O)NCC(=O)O [Darinaparsin] + N=C(N)NC(=N)NCCc1ccccc1 [Phenformin] (partner 250 µM)
Method in brief: as §1

| Cell Line | relative viability (QS11 + OSI-027; first compound 0.08 µM) | relative viability (QS11 + OSI-027; first compound 0.253 µM) | relative viability (QS11 + OSI-027; first compound 0.8 µM) | relative viability (QS11 + OSI-027; first compound 2.53 µM) | relative viability (QS11 + OSI-027; first compound 8 µM) | relative viability (AZ628 + AZD7762; first compound 0.08 µM) | relative viability (AZ628 + AZD7762; first compound 0.253 µM) | relative viability (AZ628 + AZD7762; first compound 0.8 µM) | relative viability (AZ628 + AZD7762; first compound 2.53 µM) | relative viability (AZ628 + AZD7762; first compound 8 µM) | relative viability (Darinaparsin + OSI-027; first compound 0.08 µM) | relative viability (Darinaparsin + OSI-027; first compound 0.8 µM) | relative viability (Darinaparsin + OSI-027; first compound 2.53 µM) | relative viability (Darinaparsin + OSI-027; first compound 8 µM) | relative viability ([1]; first compound 0.08 µM) | relative viability ([1]; first compound 0.8 µM) | relative viability ([1]; first compound 2.53 µM) | relative viability ([1]; first compound 8 µM) |
| --- | --- | --- | --- | --- | --- | --- | --- | --- | --- | --- | --- | --- | --- | --- | --- | --- | --- | --- |
| NCI-H2342 | 0.643 | 0.703 | 0.611 | 0.663 | 0.636 | 0.489 | 0.44 | 0.623 | 0.53 | 0.625 | 0.592 | 0.593 | 0.558 | 0.654 | 0.596 | 0.627 | 0.567 | 0.628 |
| NCI-H1975 | 0.737 | 0.674 | 0.741 | 0.659 | 0.805 | 0.78 | 0.624 | 0.711 | 0.779 | 0.623 | 0.971 | 0.742 | 0.544 | 0.961 | 0.448 | 0.43 | 0.413 | 0.427 |
| CAL-12T | 0.656 | 0.457 | 0.498 | 0.385 | 0.407 | 0.806 | 0.622 | 0.561 | 0.656 | 0.501 | 0.756 | 0.539 | 0.737 | 0.569 | 0.657 | 0.534 | 0.478 | 0.605 |
| NCI-H1648 |  | 0.26 |  | 0.275 | 0.247 | 0.871 | 0.579 | 0.524 | 0.494 | 0.587 | 0.297 | 0.237 |  | 0.269 |  |  |  |  |
| NCI-H358 | 0.774 | 0.854 | 0.888 | 0.849 | 1.01 | 0.499 | 0.405 | 0.367 | 0.412 | 0.302 | 0.988 | 0.76 | 0.846 | 0.793 | 0.429 | 0.387 | 0.331 | 0.376 |
| NCI-H3122 | 1.03 | 1.41 |  | 0.994 | 0.757 | 0.953 | 0.782 | 0.578 | 0.626 | 0.361 | 1.21 | 1 | 0.95 | 1.14 | 0.435 | 0.328 | 0.378 | 0.411 |
| NCI-H2347 | 0.489 | 0.474 | 0.411 | 0.371 | 0.347 | 0.684 | 0.575 | 0.709 | 0.566 | 0.34 | 0.398 |  | 0.424 | 0.407 | 0.451 |  | 0.396 | 0.403 |
| SK-MES-1 | 0.627 | 0.575 | 0.544 | 0.615 | 0.623 |  |  |  |  |  | 0.627 | 0.743 | 0.561 | 0.819 | 0.783 | 0.592 | 0.594 | 0.667 |
| NCI-H1703 |  |  |  |  |  | 0.118 | 0.124 | 0.134 | 0.139 | 0.0724 |  |  |  |  |  |  |  |  |
| SW 1573 | 0.583 | 0.655 | 0.734 | 0.465 | 0.278 |  |  |  |  |  | 0.736 | 0.627 | 0.611 | 0.87 | 0.438 | 0.359 | 0.378 | 0.37 |
| NCI-H2023 | 0.477 | 0.344 | 0.52 | 0.486 | 0.364 |  |  |  |  |  | 0.483 | 0.364 | 0.33 | 0.486 | 0.529 | 0.417 | 0.368 | 0.501 |
| NCI-H661 | 0.696 | 0.75 | 0.69 | 0.618 | 0.549 |  |  |  |  |  | 0.722 | 0.677 | 0.658 | 0.69 | 0.261 | 0.25 | 0.299 | 0.275 |
| NCI-H1650 | 0.58 | 0.549 | 0.642 | 0.547 | 0.396 |  |  |  |  |  | 0.567 | 0.612 | 0.504 | 0.757 | 0.472 | 0.416 | 0.494 | 0.395 |
| A549 |  |  |  |  |  |  |  |  |  |  |  |  |  |  | 0.121 | 0.114 | 0.192 | 0.163 |
| SK-LU-1 | 0.321 | 0.327 | 0.326 | 0.254 | 0.291 |  |  |  |  |  | 0.363 | 0.299 | 0.257 | 0.351 | 0.777 | 0.417 | 0.384 | 0.743 |
| NCI-H1623 | 0.417 | 0.386 | 0.415 | 0.445 | 0.426 |  |  |  |  |  | 0.429 | 0.496 | 0.471 | 0.393 | 0.619 | 0.572 | 0.587 | 0.621 |
| COR-L23 | 0.756 | 0.881 | 0.568 | 0.475 | 0.444 |  |  |  |  |  | 0.975 | 0.645 | 0.785 | 0.838 | 0.544 | 0.405 | 0.379 | 0.566 |
| NCI-H520 | 0.196 | 0.265 | 0.297 | 0.175 | 0.268 |  |  |  |  |  | 0.362 | 0.302 | 0.185 | 0.302 | 0.669 | 0.481 | 0.453 | 0.625 |
| NCI-H1563 | 0.67 | 0.775 | 0.741 | 0.745 | 0.693 |  |  |  |  |  | 0.752 | 0.735 | 0.71 | 0.708 | 0.773 | 0.619 | 0.658 | 0.642 |
| NCI-H2228 | 0.534 | 0.424 | 0.538 | 0.74 | 0.597 |  |  |  |  |  | 0.778 | 0.5 | 0.483 | 0.78 | 0.254 | 0.281 | 0.328 | 0.387 |
